From ChEMBL document CHEMBL3044811, “Efficacy of grain protectants against four psocid species on maize, rice and wheat” (2009)
Calls of active or inactive are those of the source. The calls are words filed in the database; no cut-off is given here.

Tests used:
[1] = system: Liposcelis bostrychophila; test: Insecticidal activity against Liposcelis bostrychophila (booklice) in compound pre-treated maize grains assessed as mortality at 8 ppm after 7 days (reference value: 8.9 +/-2.6%); format: functional
Liposcelis entomophila [2] = test: Insecticidal activity against Liposcelis entomophila in compound pre-treated maize grains assessed as mortality at 8 ppm after 7 days (reference value: 15.6 +/-6.9%); format: functional
[3] = system: Liposcelis bostrychophila; test: Insecticidal activity against Liposcelis bostrychophila (booklice) in compound pre-treated maize grains assessed as mortality at 8 ppm after 14 days (reference value: 13.5 +/-5.3%); format: functional
Lepinotus reticulatus [4] = test: Insecticidal activity against Lepinotus reticulatus in compound pre-treated maize grains assessed as mortality at 8 ppm after 14 days (reference value: 61.1 +/-11.9%); format: functional
Liposcelis entomophila [5] = test: Insecticidal activity against Liposcelis entomophila in compound pre-treated maize grains assessed as decrease in progeny production at 8 ppm after 30 days; format: functional, organism-based
Lepinotus reticulatus [6] = test: Insecticidal activity against Lepinotus reticulatus in compound pre-treated maize grains assessed as mortality at 8 ppm after 7 days (reference value: 34.4 +/-11.4%); format: functional
Lepinotus reticulatus [7] = test: Insecticidal activity against Lepinotus reticulatus in compound pre-treated maize grains assessed as decrease in progeny production at 8 ppm after 30 days; format: functional, organism-based
Liposcelis paeta [8] = test: Insecticidal activity against Liposcelis paeta in compound pre-treated maize grains assessed as mortality at 8 ppm after 7 days (reference value: 13.3 +/-3.3%); format: functional
Liposcelis entomophila [9] = test: Insecticidal activity against Liposcelis entomophila in compound pre-treated maize grains assessed as mortality at 8 ppm after 14 days (reference value: 14.4 +/-4.1%); format: functional
Liposcelis paeta [10] = test: Insecticidal activity against Liposcelis paeta in compound pre-treated maize grains assessed as mortality at 8 ppm after 14 days (reference value: 14.1 +/-4.1%); format: functional
[11] = system: Liposcelis bostrychophila; test: Insecticidal activity against Liposcelis bostrychophila (booklice) in compound pre-treated maize grains assessed as decrease in progeny production at 8 ppm after 30 days; format: functional, organism-based

Compound CCN(CC)c1nc(C)cc(OP(=S)(OC)OC)n1 [PIRIMIPHOS METHYL] has a mortality at 8 ppm [1] of 100%, a mortality at 8 ppm (Liposcelis entomophila [2]) of 100% and a mortality at 8 ppm [3] of 100%. For the same compound, the mortality at 8 ppm (Lepinotus reticulatus [4]) was 100%, the inhibition (Liposcelis entomophila [5]) was “Active” and the mortality at 8 ppm (Lepinotus reticulatus [6]) was 100%. The inhibition (Lepinotus reticulatus [7]) was “Active”, the mortality at 8 ppm (Liposcelis paeta [8]) was 97.8% and the mortality at 8 ppm (Liposcelis entomophila [9]) was 100%. The mortality at 8 ppm (Liposcelis paeta [10]) was 100% and the inhibition [11] was “Active”.
